In ChEMBL document CHEMBL2440070, “Synthesis and evaluation of novel azetidine analogs as potent inhibitors of vesicular [3H]dopamine uptake” (Bioorg Med Chem, 2013):
pKi: −log10 of the molar value.

Biological target: Synaptic vesicular amine transporter (Rattus norvegicus, UniProt Q01827)
Assay: Inhibition of VMAT2-mediated [3H]-dopamine uptake in rat striata isolated synaptic vesicles by liquid scintillation spectroscopy

Sequence of Synaptic vesicular amine transporter (Q01827 whole entry): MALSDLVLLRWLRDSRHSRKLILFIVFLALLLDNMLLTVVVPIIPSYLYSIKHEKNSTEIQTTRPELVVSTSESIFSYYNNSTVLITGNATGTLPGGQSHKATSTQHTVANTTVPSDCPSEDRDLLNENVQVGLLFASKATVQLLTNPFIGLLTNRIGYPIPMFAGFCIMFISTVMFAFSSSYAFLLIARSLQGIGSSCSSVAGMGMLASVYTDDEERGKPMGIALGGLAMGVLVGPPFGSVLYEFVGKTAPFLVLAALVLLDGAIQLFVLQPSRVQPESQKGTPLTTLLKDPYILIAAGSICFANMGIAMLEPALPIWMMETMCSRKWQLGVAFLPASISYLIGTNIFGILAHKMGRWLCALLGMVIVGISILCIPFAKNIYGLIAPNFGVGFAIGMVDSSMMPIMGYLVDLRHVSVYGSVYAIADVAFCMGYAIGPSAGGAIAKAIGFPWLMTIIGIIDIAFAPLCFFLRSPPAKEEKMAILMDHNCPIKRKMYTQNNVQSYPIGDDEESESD

Compound `COc1ccc(CC[C@@H]2C[C@@H](CCc3ccc(OC)cc3)N2)cc1` (racemic) has a pKi of 7.18.

Compound `c1ccc(CC[C@H]2CCC[C@@H](CCc3ccccc3)N2)cc1` has a pKi of 7.37.

`c1cc2c(cc1CC[C@@H]1C[C@@H](CCc3ccc4c(c3)OCO4)N1)OCO2` (racemic) showed a pKi of 7.51.

Work on `c1ccc(CC[C@@H]2C[C@@H](CCc3ccccc3)N2)cc1` (racemic) yielded a pKi of 7.32.

`c1cc2c(cc1CC[C@@H]1C[C@H](CCc3ccc4c(c3)OCO4)N1)OCO2` was tested, and the pKi was 7.26.

Compound `COc1ccc(CC[C@@H]2C[C@H](CCc3ccc(OC)cc3)N2)cc1` has a pKi of 7.62.

Work on `c1ccc(CC[C@@H]2C[C@H](CCc3ccccc3)N2)cc1` yielded a pKi of 7.21.
